Experimental findings from paper PMC7377361, “Pressurized DNA state inside herpes capsids—A novel antiviral target” (PLoS Pathogens, 2020) are described below.

Where no end group is shown, it is not given here.

Data set [1] relates to HSV-1 C-capsids. Kind of data set: Reconstituted nuclei-capsid MOA-assay, ultrathin-sectioning EM of DNA ejection. In kind it is biochemical. As to conditions: 37°C, 40 min; DAB-Am-4 58.5 μM, bPEI 600 39 μM, Arg^5+ 25 μM (N/P 1.5). The procedure: Once the integrity and functionality of the reconstituted nuclei-capsid system for MOA testing was established, we applied a stringent test of the antiviral activity of each compound. We used ultrathin-sectioning EM to visualize DNA injection from HSV-1 capsids into isolated nuclei with DAB-Am-4 (58.5 μM), bPEI 600 (39 μM), and Arg^5+(25 μM). Compound concentrations corresponded to an N/P ratio of 1.5 (scaled proportionally to virus concentration, as described above) (Fig 4). Purified DNA-filled C-capsids were incubated with isolated rat liver nuclei in the presence of cell cytosol supplemented with ATP regeneration system for 40 min at 37°C, providing optimum conditions, found to maximize capsid binding to NPCs with subsequent DNA ejection. […] Only capsids that appeared bound to the nuclear membrane are included in the statistics (more than 790 nuclei-bound capsids and over 140 nuclei were counted for each sample analysis, providing good statistics). [Note that micrographs shown in Raw 1 of Fig 4 are lower magnification images (13,500X) which show an area around a nuclear membrane with empty and DNA-filled capsids. For our analysis of capsids bound to NPCs, we only used higher magnification images (25,000X) shown in Raw 2, to identify capsids that were associated with visible NPCs. A larger collection of these EM-micrographs at magnification 25,000X with and without different compounds added is shown in a supporting raw data file (S5 Fig).]
We built an in vitro viral HSV-1 DNA translocation system in which the HSV-1 genome was released into nucleoplasm in a homogenate solution mimicking the cytoplasm environment; see details in previously described protocol in ref.[41]. In a typical system, rat liver cell nuclei were incubated with C-capsids (HSV-1 or GFP-labeled HSV-1) in solution containing: (i) cytosol, (ii) BSA, (iii) ATP regeneration system; see details in ref.[41]. The system was incubated at 37°C for 40 min, sufficient for capsid binding to nuclei. For inhibition studies, wheat germ agglutinin (WGA) was preincubated with the nuclei prior to addition of C-capsids. For compound-induced inhibition of DNA ejection studies, C-capsids were preincubated with the polyvalent cationic agents at the concentrations described in the main text before adding capsids to nuclei.
After incubation of nuclei with C-capsids, the samples were washed once with CBB buffer (1,000 rpm for 10 min in a microcentrifuge). The supernatant was then removed and replaced with a fixative (2.5% EM-grade glutaraldehyde and 2.0% EM-grade formaldehyde in 0.1 M sodium cacodylate buffer, pH 7.4) for 3 hours at 4 °C. The fixative was then removed, replaced briefly with buffer, and then replaced with 1% osmium tetroxide in buffer for 90 minutes. Each sample was then subjected to 10-minute buffer rinse, after which it was placed in 1% aqueous uranyl acetate and left overnight. The next day, each sample was dehydrated via a graded ethanol series, culminating in propylene oxide. Following a graded propylene oxide; Epon812 series, the nuclear pellets were embedded in Epon812 prior to cutting. Ultrathin (ca. 90 nm) Epon sections on grids were stained with 1% aqueous uranyl acetate and lead citrate. After the grids dried, areas of interest were imaged at 120 kV, spot 3 using a Tietz 2kx2k camera mounted on a Philips/FEI (now Thermo Fisher FEI) CM200 transmission electron microscope.

Data set [2] deals with HSV-1 C-capsids. Briefly: Binding of GFP-HSV-1 C-capsids to nuclei of digitonin-permeabilized Vero cells (SR-SIM). In kind it is cell-based. The procedure:
This was verified with a fluorescently labeled nuclear localization signal (NLS), added to purified rat liver nuclei incubated with cytosolic extracts (as a source of soluble import factors) supplemented with an ATP regeneration system, see Supporting Materials for experimental description and S4A Fig. These controls were also reproduced with a digitonin-permeabilized cell assay, which accurately recapitulates capsid-nucleus binding and nuclear import in living cells; see Supporting Materials and data shown in S4B Fig. In agreement with observations in the isolated nuclei system (Fig 3B), we also confirmed via a digitonin-permeabilized cell assay that none of the three compounds interfered with capsid-NPC binding in cells. Attachment of GFP-capsids to nuclei was visualized with SR-SIM (S4C Fig). The addition of WGA prevented capsid binding, showing capsid-NPC binding specificity (S4C Fig).
To obtain cytosolic extracts as a source of soluble import factors, Vero cell monolayers (4 x 10^7 cells) were washed with ice-cold PBS and scraped off the plate into 5 ml of cold PBS. […] The samples were then processed for fluorescence imaging as described above. […]

On to RRRRR [Arg^5+], for which, in the data set on HSV-1 C-capsids [1], the “Capsids bound to NPC: DNA-filled capsids” value came to 50%, the “Capsids bound to NPC: DNA-filled capsids (count)” value is 399, the “Capsids bound to NPC: Empty capsids” value is 50% and the “Capsids bound to NPC: Empty capsids (count)” value turned out to be 398. The “binding of GFP-HSV-1 C-capsids to nuclei of permeabilized cells” value with HSV-1 C-capsids [2] is “not blocked”.

For the compound `NCCCN(CCCN)CCCCN(CCCN)CCCN` [DAB-Am-4], in the data set on HSV-1 C-capsids [1], the “Capsids bound to NPC: DNA-filled capsids” value was 60%, the “Capsids bound to NPC: DNA-filled capsids (count)” value is 479, the “Capsids bound to NPC: Empty capsids” value came to 40% and the “Capsids bound to NPC: Empty capsids (count)” value was 313. The “binding of GFP-HSV-1 C-capsids to nuclei of permeabilized cells” value with HSV-1 C-capsids [2] is reported as “not blocked”.
